Where two headings read alike, the source gives them in different places.
Key:
Format in all cases: in vivo
[1] = test system: Amaranthus retroflexus (AMARE); test: Post-emergence herbicidal action against AMARE
Procedure, shortened: (§1)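 Post-emergence greenhouse spray, one-leaf stage, 600 l/ha water plus 0.5% additive; WP or EC formulations; application rates 320 g/ha or lower. Visual % damage vs untreated controls at ~3 weeks.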

Viola tricolor (VIOTR) [2] = test: Pre-emergence herbicidal action against VIOTR
Procedure, shortened: (§2)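 Application rates ran to 320 g/ha or lower, with several dosages tested on the same weeds. The compound, as wettable powder or emulsion concentrate, is sprayed pre-emergence onto soil over sown seeds; greenhouse growth follows, and effect is rated visually after roughly 3 weeks.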

[3] = test system: Alopecurus myosuroides (ALOMY); test: Post-emergence herbicidal action against ALOMY; settings: visual rating about 3 weeks after treatment vs untreated controls (100% = plants have died, 0% = like control plants)
Procedure, shortened: as §1

Lolium rigidum (LOLRI) [4] = test: Pre-emergence herbicidal action against LOLRI
Procedure, shortened: as §2

Setaria viridis (SETVI) [5] = test: Post-emergence herbicidal action against SETVI
Procedure, shortened: as §1

[6] = test system: Echinochloa crus-galli (ECHCG); test: Post-emergence herbicidal action against ECHCG
Procedure, shortened: as §1

[7] = test system: Amaranthus retroflexus (AMARE); test: Pre-emergence herbicidal action against AMARE; settings: visual scoring after about 3 weeks vs untreated controls
Procedure, shortened: as §2

Lolium rigidum (LOLRI) [8] = test: Post-emergence herbicidal action against LOLRI
Procedure, shortened: as §1

Viola tricolor (VIOTR) [9] = test: Post-emergence herbicidal action against VIOTR
Procedure, shortened: as §1

Avena fatua (AVEFA) [10] = test: Post-emergence herbicidal action against AVEFA; settings: 320 g/ha, visual rating about 3 weeks after treatment
Procedure, shortened: as §1

[11] = test system: Pharbitis purpurea (PHBPU); test: Pre-emergence herbicidal action against PHBPU
Procedure, shortened: as §2

Oryza sativa (ORYSA) = settings: crop plant compatibility
Procedure, shortened: (§3)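 Greenhouse crops in sandy loam sprayed post-emergence at the one-leaf stage, 2–3 weeks after sowing, with WP or EC formulations in water plus 0.5% additive at 600 l/ha. Damage rated visually about 3 weeks later versus untreated controls (0% = like control, 100% = dead); suffixes a–c denote different doses.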

[12] = test system: Pharbitis purpurea (PHBPU); test: Post-emergence herbicidal action against PHBPU
Procedure, shortened: as §1

[13] = test system: Alopecurus myosuroides (ALOMY); test: Pre-emergence herbicidal action against ALOMY; settings: scored visually after about 3 weeks, 100% = plants have died
Procedure, shortened: as §2

[14] = test system: Digitaria sanguinalis (DIGSA); test: Post-emergence herbicidal action against DIGSA; settings: visual rating about 3 weeks after treatment
Procedure, shortened: as §1

[15] = test system: Matricaria inodora (MATIN); test: Pre-emergence herbicidal action against MATIN
Procedure, shortened: as §2

[16] = test system: Abutilon theophrasti (ABUTH); test: Pre-emergence herbicidal action against ABUTH; settings: Dosage column 320 g/ha (title prints 3200 g/ha); scored visually after about 3 weeks; 100% = plants have died
Procedure, shortened: as §2

[17] = test system: Polygonum convolvulus (POLCO); test: Pre-emergence herbicidal action against POLCO
Procedure, shortened: as §2

[18] = test system: Verconica persica (VERPE); test: Pre-emergence herbicidal action against VERPE
Procedure, shortened: as §2

[19] = test system: Digitaria sanguinalis (DIGSA); test: Pre-emergence herbicidal action against DIGSA
Procedure, shortened: as §2

Setaria viridis (SETVI) [20] = test: Pre-emergence herbicidal action against SETVI
Procedure, shortened: as §2

[21] = test system: Echinochloa crus-galli (ECHCG); test: Pre-emergence herbicidal action against ECHCG
Procedure, shortened: as §2

[22] = test system: Matricaria inodora (MATIN); test: Post-emergence herbicidal action against MATIN; settings: dosage 320 g/ha
Procedure, shortened: as §1

Avena fatua (AVEFA) [23] = test: Pre-emergence herbicidal action against AVEFA; settings: 320 g/ha, visual scoring after about 3 weeks vs untreated controls
Procedure, shortened: as §2

[24] = test system: Verconica persica (VERPE); test: Post-emergence herbicidal action against VERPE
Procedure, shortened: as §1

[25] = test system: Polygonum convolvulus (POLCO); test: Post-emergence herbicidal action against POLCO
Procedure, shortened: as §1

[26] = test system: Abutilon theophrasti (ABUTH); test: Post-emergence herbicidal action against ABUTH; settings: visual rating about 3 weeks after treatment vs untreated controls (100% = plants have died, 0% = like control plants)
Procedure, shortened: as §1

Zea mays (ZEAMX) [27] = settings: pre-emergence, 80 g/ha, crop plant compatibility, in comparison to untreated controls
Procedure, shortened: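 Crop injury rated visually in percent against untreated plants roughly 3 weeks after treatment (0% no effect, 100% plants dead). Compounds, as WP or EC with 0.5% additive in 600 l/ha water, were applied to the covering soil right after sowing; greenhouse growth. Suffixes a, b, c denote different dosages.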

Zea mays (ZEAMX) [28] = settings: 20 g/ha, ZEAMX, effect in comparison to untreated controls
Procedure, shortened: as §3

[29] = 80 g/ha, visual rating about 3 weeks after treatment vs untreated controls (100% = plants have died, 0% = like control plants)
[30] = 320 g/ha, visual rating about 3 weeks after treatment
[31] = 80 g/ha, effect in comparison to untreated controls
[32] = 80 g/ha, visual scoring after about 3 weeks vs untreated controls

Structure (SMILES)	Post-emergence action against AMARE in % [1, 29]	Post-emergence action against AMARE in % [1, 30]	Pre-emergence action against VIOTR in % (Viola tricolor (VIOTR) [2]; 320 g/ha, Viola tricolor)	Pre-emergence action against VIOTR in % (Viola tricolor (VIOTR) [2]; dosage 80 g/ha)	Post-emergence action against ALOMY in % ([3]; 80 g/ha)	Post-emergence action against ALOMY in % ([3]; 320 g/ha)	Pre-emergence action against LOLRI in % (Lolium rigidum (LOLRI) [4]; dosage 320 g/ha)	Post-emergence action against SETVI in % (Setaria viridis (SETVI) [5]; dosage 80 g/ha)	Post-emergence action against SETVI in % (Setaria viridis (SETVI) [5]; dosage 320 g/ha)	Post-emergence action against ECHCG in % ([6]; dosage 80 g/ha)	Pre-emergence action against AMARE in % ([7]; 80 g/ha)	Pre-emergence action against AMARE in % ([7]; 320 g/ha)	Post-emergence action against PHBPU in % ([12]; dosage 80 g/ha)	Pre-emergence action against ALOMY ([13]; 320 g/ha)	Pre-emergence action against MATIN in % ([15]; dosage 320 g/ha)	Pre-emergence action against ABUTH [16]	Pre-emergence action against POLCO in % ([17]; dosage 320 g/ha)	Pre-emergence action against VERPE in % ([18]; dosage 320 g/ha)	Pre-emergence action against SETVI in % (Setaria viridis (SETVI) [20]; dosage 320 g/ha)	Pre-emergence action against ECHCG in % ([21]; dosage 320 g/ha)	other results
COC(=O)C(C)COC(=O)COc1nn(-c2ccccn2)c(-c2cncc(F)c2)c1Cl (stereo not shown) [Example I-221]	80%	90%	90%	90%	80%	80%	100%	90%	90%	80%	80%	90%	90%	90%	90%	80%	90%	90%	100%	100%	Pre-emergence action against LOLRI in % (Lolium rigidum (LOLRI) [4]; dosage 80 g/ha): 80%; Post-emergence action against ECHCG in % ([6]; dosage 320 g/ha): 80%; Post-emergence action against LOLRI in % (Lolium rigidum (LOLRI) [8]; dosage 80 g/ha): 80%; Post-emergence action against LOLRI in % (Lolium rigidum (LOLRI) [8]; dosage 320 g/ha): 90%; Post-emergence action against VIOTR in % (Viola tricolor (VIOTR) [9]; 80 g/ha): 80%; Post-emergence action against VIOTR in % (Viola tricolor (VIOTR) [9]; 320 g/ha): 80%; Post-emergence action against AVEFA in % (Avena fatua (AVEFA) [10]): 80%; Pre-emergence action against PHBPU in % ([11]; dosage 80 g/ha): 90%; Pre-emergence action against PHBPU in % ([11]; dosage 320 g/ha): 90%; Post-emergence action against ORYSA in % (Oryza sativa (ORYSA); [31]): 20%; Post-emergence action against PHBPU in % ([12]; dosage 320 g/ha): 100%; Post-emergence action against DIGSA in % ([14]; 320 g/ha): 80%; Pre-emergence action against MATIN in % ([15]; dosage 80 g/ha): 90%; Pre-emergence action against POLCO in % ([17]; dosage 80 g/ha): 80%; Pre-emergence action against DIGSA in % [19, 32]: 90%; Pre-emergence action against DIGSA in % ([19]; dosage 320 g/ha): 100%; Pre-emergence action against SETVI in % (Setaria viridis (SETVI) [20]; dosage 80 g/ha): 90%; Pre-emergence action against ECHCG in % ([21]; dosage 80 g/ha): 90%
COC(=O)CCOC(=O)COc1nn(-c2ccccn2)c(-c2ccc(F)nc2)c1Cl [Example I-88]	80%	80%	90%	–	80%	90%	100%	–	80%	80%	80%	100%	80%	100%	90%	80%	90%	90%	100%	100%	Post-emergence action against MATIN in % [22]: 80%; Pre-emergence action against AVEFA in % (Avena fatua (AVEFA) [23]): 90%; Post-emergence action against ECHCG in % ([6]; dosage 320 g/ha): 90%; Post-emergence action against LOLRI in % (Lolium rigidum (LOLRI) [8]; dosage 320 g/ha): 80%; Post-emergence action against AVEFA in % (Avena fatua (AVEFA) [10]): 90%; Pre-emergence action against PHBPU in % ([11]; dosage 320 g/ha): 80%; Post-emergence action against VERPE in % ([24]; 320 g/ha, VERPE): 80%; Post-emergence action against VERPE in % ([24]; dosage 80 g/ha): 80%; Post-emergence action against POLCO in % ([25]; dosage 80 g/ha): 80%; Post-emergence action against POLCO in % ([25]; dosage 320 g/ha): 80%; Post-emergence action against ORYSA in % (Oryza sativa (ORYSA); [31]): 0%; Post-emergence action against PHBPU in % ([12]; dosage 320 g/ha): 80%; Pre-emergence action against ALOMY ([13]; 80 g/ha): 80%; Pre-emergence action against POLCO in % ([17]; dosage 80 g/ha): 80%; Pre-emergence action against VERPE in % ([18]; dosage 80 g/ha): 80%; Post-emergence action against ABUTH in % ([26]; 80 g/ha): 80%; Post-emergence action against ABUTH in % ([26]; 320 g/ha): 80%; Pre-emergence action against ZEAMX in % (Zea mays (ZEAMX) [27]): 20%; Pre-emergence action against ECHCG in % ([21]; dosage 80 g/ha): 90%
CCOC(=O)COc1nn(-c2ncccc2F)c(-c2ccc(F)nc2)c1Br [Example I-39]	–	–	100%	100%	100%	–	100%	80%	–	80%	100%	100%	80%	100%	100%	90%	90%	100%	100%	100%	Pre-emergence action against AVEFA in % (Avena fatua (AVEFA) [23]): 90%; Post-emergence action against VIOTR in % (Viola tricolor (VIOTR) [9]; 80 g/ha): 80%; Post-emergence action against VERPE in % ([24]; dosage 80 g/ha): 80%; Post-emergence action against POLCO in % ([25]; dosage 80 g/ha): 90%; Post-emergence action against ZEAMX in % (crop plant compatibility) (Zea mays (ZEAMX) [28]): 0%; Post-emergence action against ORYSA in % (Oryza sativa (ORYSA); 20 g/ha, effect vs untreated controls): 0%; Pre-emergence action against ALOMY ([13]; 80 g/ha): 100%; Post-emergence action against DIGSA in % ([14]; 80 g/ha): 90%; Pre-emergence action against DIGSA in % [19, 32]: 100%; Pre-emergence action against DIGSA in % ([19]; dosage 320 g/ha): 100%; Pre-emergence action against SETVI in % (Setaria viridis (SETVI) [20]; dosage 80 g/ha): 100%; Post-emergence action against ABUTH in % ([26]; 80 g/ha): 90%
